For the experiment, the system named is rat dysuria model that presents DHIC. The experiment is described as follows: Cystometry and nomogram analysis in rat dysuria model that presents DHIC (partial ligation of urethra). In kind it is in vivo. The procedure:
The models were produced by partial ligation ((1)1.57 mm) of urethra in rats (9 weeks, female, Sprague-Dawley). Six weeks after preparation of the model, the rats were released the ligation. The next day, the intravesical pressure and the voided volume were measured under awake condition. And the detrusor contractility during voiding phase was evaluated by nomogram analysis using Qmax and Pdet. Additionally, the detrusor overactivity, as index of overactive bladder, and the increase of residual urine volume, as index of underactive bladder, were evaluated.
The dysuria models in this example were prepared in the same manner as in Test Example 1. The test drugs (vehicle: 6% Gelucire, Compound 1 of the present invention 10 mg/kg) were orally administered to each group after two weeks from the preparation of the models twice a day for four weeks. On the day of the final administration, the rats were released the ligation of urethra. The next day, the intravesical pressure and the voided volume were measured using cystometry under conscious condition. The detrusor overactivity, as an index of overactive bladder, and the increase of residual urine volume, as an index of underactive bladder, were evaluated. Additionally, the detrusor contractility during voiding phase was evaluated by nomogram analysis using Qmax and Pdet.
In the same manner as Test Example 1, the rats were released the ligation of urethra at six weeks after the preparation of the model. The next day, the intravesical pressure and the voided volume were measured using cystometry under conscious condition. The detrusor overactivity, as an index of overactive bladder, and the increase of residual urine volume, as an index of underactive bladder, were evaluated. Additionally, the detrusor contractility during voiding phase was evaluated by nomogram analysis using Qmax and Pdet. Tamsulosin (3 μg/kg) was administered intravenously to the dysuria rat at the evaluation (six weeks after preparation of the model).

The structures appear in SMILES notation. Values joined by “and” are separate entries in the source; they are usually repeats but may differ in a detail not shown here. Equal entries are not always repeated.

For `CCOc1ccccc1OCCN[C@H](C)Cc1ccc(OC)c(S(N)(=O)=O)c1` [Tamsulosin, reference compound], where the note is “3 μg/kg intravenously at the evaluation, vs control (FIG. 2)”, the “Detrusor contractility in nomogram analysis” value was “no effect”. This compound had a Detrusor overactivity (female Sprague-Dawley rats, 3 μg/kg intravenously at the evaluation, conscious cystometry, control 1.73 ± 0.10) of 0.68±0.33 times/min.
On to `CC1=C(CCCCCCCCCCCCCCCO)C(C)(C)CCC1=O` [Compound 1 of the present invention, 3-(15-hydroxypentadecyl)-2,4,4-trimethyl-2-cyclohexene-1-one], for which the “Detrusor contractility during voiding phase: distance from the origin in nomogram analysis (Qmax, Pdet)” value (10 mg/kg orally twice a day for four weeks, control 4.24±0.53, sham 24.75±3.14) is on record as 10.5±2.3. The compound further gave a Residual urine volume (female Sprague-Dawley rats, 10 mg/kg orally twice a day for four weeks, conscious cystometry, control 0.57 ± 0.06, sham 0.10 ± 0.03, 10 mg/kg) of 0.28 ± 0.13 mL. For the same compound, the Detrusor overactivity (female Sprague-Dawley rats, 10 mg/kg orally twice a day for four weeks, conscious cystometry, control 1.73 ± 0.10, sham 0.19 ± 0.09, 10 mg/kg) is 0.63±0.14 times/min and 0.63 ± 0.10 times/min.

These data come from patent US20170035706A1, “DETRUSOR HYPERACTIVITY WITH IMPAIRED CONTRACTILITY AMELIORATING AGENT” (TAIHO PHARMACEUTICAL CO., LTD., priority 2015, published 2017).
